From ChEMBL document CHEMBL1649234, “Antimicrobial activities of piperacillin-tazobactam against Haemophilus influenzae isolates, including beta-lactamase-negative ampicillin-resistant and beta-lactamase-positive amoxicillin-clavulanate-resistant isolates, and mutations in their quinolone resistance-determining regions” (2009)
Values after ≈ are worked out from the molar mass of the structure shown.

Tests used:
Format in all cases: functional
Haemophilus influenzae [1] = test: Antimicrobial activity against beta-lactamase negative ampicillin-susceptible Haemophilus influenzae harboring […] mutant gene assessed as susceptible isolates by broth microdilution method in presence of beta-lactamase inhibitor clavulanic acid
Haemophilus influenzae [2] = test: Antimicrobial activity against beta-lactamase negative ampicillin-resistant Haemophilus influenzae by broth microdilution method in presence of beta-lactamase inhibitor clavulanic acid
Haemophilus influenzae [3] = test: Antimicrobial activity against beta-lactamase negative ampicillin-resistant Haemophilus influenzae assessed as susceptible isolates by broth microdilution method in presence of beta-lactamase inhibitor clavulanic acid
Haemophilus influenzae [4] = test: Antimicrobial activity against beta-lactamase positive (amoxicillin)clavulanate-resistant Haemophilus influenzae assessed as susceptible isolates by broth microdilution method in presence of beta-lactamase inhibitor clavulanic acid
Haemophilus influenzae [5] = test: Antimicrobial activity against beta-lactamase-positive ampicillin-resistant Haemophilus influenzae harboring […] mutant gene assessed as susceptible isolates by broth microdilution method in presence of beta-lactamase inhibitor clavulanic acid
Haemophilus influenzae [6] = test: Antimicrobial activity against beta-lactamase positive (amoxicillin)clavulanate-resistant Haemophilus influenzae by broth microdilution method in presence of beta-lactamase inhibitor clavulanic acid
Haemophilus influenzae [7] = test: Antimicrobial activity against beta-lactamase negative ampicillin-susceptible Haemophilus influenzae harboring […] mutant gene by broth microdilution method in presence of beta-lactamase inhibitor clavulanic acid
Haemophilus influenzae [8] = test: Antimicrobial activity against beta-lactamase-positive ampicillin-resistant Haemophilus influenzae harboring fst1 mutant gene by broth microdilution method in presence of beta-lactamase inhibitor clavulanic acid
Haemophilus influenzae [9] = test: Antimicrobial activity against beta-lactamase negative ampicillin-susceptible Haemophilus influenzae harboring […] mutant gene by broth microdilution method
Haemophilus influenzae [10] = test: Antimicrobial activity against beta-lactamase-positive ampicillin-resistant Haemophilus influenzae harboring […] mutant gene assessed as susceptible isolates by broth microdilution method in presence of beta-lactamase inhibitor Sulbactam
Haemophilus influenzae [11] = test: Antimicrobial activity against beta-lactamase positive (amoxicillin)clavulanate-resistant Haemophilus influenzae assessed as susceptible isolates by broth microdilution method
Haemophilus influenzae [12] = test: Antimicrobial activity against beta-lactamase negative ampicillin-resistant Haemophilus influenzae assessed as susceptible isolates by broth microdilution method
Haemophilus influenzae [13] = test: Antimicrobial activity against beta-lactamase-positive ampicillin-resistant Haemophilus influenzae harboring fst1 mutant gene by broth microdilution method in presence of beta-lactamase inhibitor Sulbactam
Haemophilus influenzae [14] = test: Antimicrobial activity against beta-lactamase-positive ampicillin-resistant Haemophilus influenzae harboring fst1 mutant gene by broth microdilution method
Haemophilus influenzae [15] = test: Antimicrobial activity against beta-lactamase positive (amoxicillin)clavulanate-resistant Haemophilus influenzae assessed as susceptible isolates by broth microdilution method in presence of beta-lactamase inhibitor Sulbactam
Haemophilus influenzae [16] = test: Antimicrobial activity against beta-lactamase positive (amoxicillin)clavulanate-resistant Haemophilus influenzae by broth microdilution method in presence of beta-lactamase inhibitor Sulbactam
Haemophilus influenzae [17] = test: Antimicrobial activity against beta-lactamase negative ampicillin-susceptible Haemophilus influenzae harboring […] mutant gene assessed as susceptible isolates by broth microdilution method
Haemophilus influenzae [18] = test: Antimicrobial activity against beta-lactamase negative ampicillin-resistant Haemophilus influenzae assessed as susceptible isolates by broth microdilution method in presence of beta-lactamase inhibitor Sulbactam
Haemophilus influenzae [19] = test: Antimicrobial activity against beta-lactamase negative ampicillin-susceptible Haemophilus influenzae harboring […] mutant gene by broth microdilution method in presence of beta-lactamase inhibitor Sulbactam
Haemophilus influenzae [20] = test: Antimicrobial activity against beta-lactamase negative ampicillin-resistant Haemophilus influenzae by broth microdilution method in presence of beta-lactamase inhibitor Sulbactam
Haemophilus influenzae [21] = test: Antimicrobial activity against beta-lactamase negative ampicillin-resistant -Haemophilus influenzae by broth microdilution method
Haemophilus influenzae [22] = test: Antimicrobial activity against beta-lactamase negative ampicillin-susceptible Haemophilus influenzae harboring […] mutant gene assessed as susceptible isolates by broth microdilution method in presence of beta-lactamase inhibitor Sulbactam
Haemophilus influenzae [23] = test: Antimicrobial activity against beta-lactamase-positive ampicillin-resistant Haemophilus influenzae harboring fst1 mutant gene assessed as susceptible isolates by broth microdilution method
Haemophilus influenzae [24] = test: Antimicrobial activity against beta-lactamase positive (amoxicillin)clavulanate-resistant Haemophilus influenzae by broth microdilution method

CC1(C)S[C@@H]2[C@H](NC(=O)[C@H](N)c3ccc(O)cc3)C(=O)N2[C@H]1C(=O)O [AMOXICILLIN] gave an Activity (Haemophilus influenzae [1]) of 100%, an MIC50 (Haemophilus influenzae [2]) of 8 µg/mL and an MIC90 (Haemophilus influenzae [2]) of 8 µg/mL. For the same molecule, the Activity (Haemophilus influenzae [3]) was 27%, the Activity (Haemophilus influenzae [4]) was 0% and the Activity (Haemophilus influenzae [5]) was 100%. For the same molecule, the MIC (Haemophilus influenzae [6]) was 8 µg/mL, the MIC50 (Haemophilus influenzae [6]) was 8 µg/mL and the MIC90 (Haemophilus influenzae [6]) was 8 µg/mL. The MIC50 (Haemophilus influenzae [7]) was 0.5 µg/mL, the MIC90 (Haemophilus influenzae [7]) was 1 µg/mL and the MIC (Haemophilus influenzae [8]) was 0.5 µg/mL. It also gave an MIC50 (Haemophilus influenzae [8]) of 0.5 µg/mL and an MIC90 (Haemophilus influenzae [8]) of 1 µg/mL.

CC1(C)S[C@@H]2[C@H](NC(=O)[C@H](N)c3ccccc3)C(=O)N2[C@H]1C(=O)O [AMPICILLIN] showed an MIC50 (Haemophilus influenzae [9]) of 0.25 µg/mL (≈ 0.715 µM), an MIC90 (Haemophilus influenzae [9]) of 0.5 µg/mL (≈ 1.43 µM) and an Activity (Haemophilus influenzae [10]) of 75%. It also gave an Activity (Haemophilus influenzae [11]) of 0%, an Activity (Haemophilus influenzae [12]) of 0% and an MIC (Haemophilus influenzae [13]) of 0.5 µg/mL. The MIC50 (Haemophilus influenzae [13]) was 0.25 µg/mL, the MIC90 (Haemophilus influenzae [13]) was 0.5 µg/mL and the MIC50 (Haemophilus influenzae [14]) was no less than 8 µg/mL. For the same molecule, the MIC90 (Haemophilus influenzae [14]) was no less than 8 µg/mL, the Activity (Haemophilus influenzae [15]) was 0% and the MIC (Haemophilus influenzae [16]) was 8 µg/mL. The MIC50 (Haemophilus influenzae [16]) was 8 µg/mL, the MIC90 (Haemophilus influenzae [16]) was 16 µg/mL and the Activity (Haemophilus influenzae [17]) was 100%. It also gave an Activity (Haemophilus influenzae [18]) of 22%, an MIC50 (Haemophilus influenzae [19]) of 0.5 µg/mL and an MIC90 (Haemophilus influenzae [19]) of 0.5 µg/mL. For the same molecule, the MIC50 (Haemophilus influenzae [20]) was 4 µg/mL, the MIC90 (Haemophilus influenzae [20]) was 8 µg/mL and the MIC50 (Haemophilus influenzae [21]) was 4 µg/mL (≈ 11.4 µM). For the same molecule, the MIC90 (Haemophilus influenzae [21]) was no less than 8 µg/mL, the Activity (Haemophilus influenzae [22]) was 100% and the Activity (Haemophilus influenzae [23]) was 0%. The MIC (Haemophilus influenzae [24]) was no less than 8 µg/mL, the MIC50 (Haemophilus influenzae [24]) was no less than 8 µg/mL and the MIC90 (Haemophilus influenzae [24]) was no less than 8 µg/mL.

In the case of CO/N=C(\C(=O)N[C@@H]1C(=O)N2C(C(=O)O)=C(CSc3nc(=O)c(O)nn3C)CS[C@H]12)c1csc(N)n1 [CEFTRIAXONE], the Activity (Haemophilus influenzae [11]) is reported as 100%, the Activity (Haemophilus influenzae [12]) is reported as 100% and the MIC50 (Haemophilus influenzae [21]) is reported as 0.25 µg/mL (≈ 0.451 µM). For the same molecule, the MIC90 (Haemophilus influenzae [21]) was 0.25 µg/mL (≈ 0.451 µM), the MIC50 (Haemophilus influenzae [24]) was 0.12 µg/mL and the MIC90 (Haemophilus influenzae [24]) was 0.25 µg/mL.
